Data reported in ChEMBL document CHEMBL4308864, “Targeting tyrosine kinase: Development of acridone - pyrrole - oxindole hybrids against human breast cancer” (2019).

What was measured:
Type in all cases: functional
COLO 205 = experiment: Growth inhibition of human COLO205 cells assessed as cell growth at 10^-5 M incubated for 48 hrs by sulforhodamine B assay relative to control; conditions: COLO 205, 48 h, read-out: Activity
SNB-19 = experiment: Growth inhibition of human SNB19 cells assessed as cell growth at 10^-5 M incubated for 48 hrs by sulforhodamine B assay relative to control; conditions: SNB-19, 48 h, read-out: Activity
M14 = experiment: Growth inhibition of human M14 cells assessed as cell growth at 10^-5 M incubated for 48 hrs by sulforhodamine B assay relative to control; conditions: M14, 48 h, read-out: Activity
BT-549 = experiment: Growth inhibition of human BT549 cells assessed as cell growth at 10^-5 M incubated for 48 hrs by sulforhodamine B assay relative to control; conditions: BT-549, 48 h, read-out: Activity
MCF7 = experiment: Growth inhibition of human MCF7 cells at 10^-5 M incubated for 48 hrs by sulforhodamine B assay relative to control; conditions: MCF7, 48 h, read-out: GI
SN12C = experiment: Growth inhibition of human SN12C cells assessed as cell growth at 10^-5 M incubated for 48 hrs by sulforhodamine B assay relative to control; conditions: read-out: Activity
NCI-H23 = experiment: Growth inhibition of human NCI-H23 cells assessed as cell growth at 10^-5 M incubated for 48 hrs by sulforhodamine B assay relative to control; conditions: NCI-H23, 48 h, read-out: Activity
NCI-H460 = experiment: Growth inhibition of human NCI-H460 cells assessed as cell growth at 10^-5 M incubated for 48 hrs by sulforhodamine B assay relative to control; conditions: NCI-H460, 48 h, read-out: Activity
A549 = experiment: Growth inhibition of human A549/ATCC cells assessed as cell growth at 10^-5 M incubated for 48 hrs by sulforhodamine B assay relative to control; conditions: A549, 48 h, read-out: Activity
SK-OV-3 = experiment: Growth inhibition of human SKOV3 cells assessed as cell growth at 10^-5 M incubated for 48 hrs by sulforhodamine B assay relative to control; conditions: SK-OV-3, 48 h, read-out: Activity
SK-MEL-28 = experiment: Growth inhibition of human SK-MEL-28 cells assessed as cell growth at 10^-5 M incubated for 48 hrs by sulforhodamine B assay relative to control; conditions: SK-MEL-28, 48 h, read-out: Activity
HCT-116 = experiment: Growth inhibition of human HCT116 cells assessed as cell growth at 10^-5 M incubated for 48 hrs by sulforhodamine B assay relative to control; conditions: HCT-116, 48 h, read-out: Activity
MDA-MB-231 = experiment: Growth inhibition of human MDA-MB-231 cells assessed as cell growth at 10^-5 M incubated for 48 hrs by sulforhodamine B assay relative to control; conditions: MDA-MB-231, 48 h, read-out: Activity
HT-29 = experiment: Growth inhibition of human HT-29 cells assessed as cell growth at 10^-5 M incubated for 48 hrs by sulforhodamine B assay relative to control; conditions: HT-29, 48 h, read-out: Activity
HCC 2998 = experiment: Growth inhibition of human HCC2998 cells assessed as cell growth at 10^-5 M incubated for 48 hrs by sulforhodamine B assay relative to control; conditions: HCC 2998, 48 h, read-out: Activity
HOP-92 = experiment: Growth inhibition of human HOP92 cells assessed as cell growth at 10^-5 M incubated for 48 hrs by sulforhodamine B assay relative to control; conditions: HOP-92, 48 h, read-out: Activity
NCI/ADR-RES = experiment: Growth inhibition of human NCI/ADR-RES cells assessed as cell growth at 10^-5 M incubated for 48 hrs by sulforhodamine B assay relative to control; conditions: read-out: Activity
OVCAR-5 = experiment: Growth inhibition of human OVCAR5 cells assessed as cell growth at 10^-5 M incubated for 48 hrs by sulforhodamine B assay relative to control; conditions: OVCAR-5, 48 h, read-out: Activity
UO-31 = experiment: Growth inhibition of human UO31 cells assessed as cell growth at 10^-5 M incubated for 48 hrs by sulforhodamine B assay relative to control; conditions: UO-31, 48 h, read-out: Activity
UACC-257 = experiment: Growth inhibition of human UACC257 cells assessed as cell growth at 10^-5 M incubated for 48 hrs by sulforhodamine B assay relative to control; conditions: UACC-257, 48 h, read-out: Activity
SW-620 = experiment: Growth inhibition of human SW620 cells assessed as cell growth at 10^-5 M incubated for 48 hrs by sulforhodamine B assay relative to control; conditions: SW-620, 48 h, read-out: Activity
OVCAR-4 = experiment: Growth inhibition of human OVCAR4 cells assessed as cell growth at 10^-5 M incubated for 48 hrs by sulforhodamine B assay relative to control; conditions: OVCAR-4, 48 h, read-out: Activity
K562 = experiment: Growth inhibition of human K562 cells assessed as cell growth at 10^-5 M incubated for 48 hrs by sulforhodamine B assay relative to control; conditions: K562, 48 h, read-out: Activity
ACHN = experiment: Growth inhibition of human ACHN cells assessed as cell growth at 10^-5 M incubated for 48 hrs by sulforhodamine B assay relative to control; conditions: read-out: Activity
LOX IMVI = experiment: Growth inhibition of human LOXIMVI cells assessed as cell growth at 10^-5 M incubated for 48 hrs by sulforhodamine B assay relative to control; conditions: read-out: Activity
SNB-75 = experiment: Growth inhibition of human SNB75 cells assessed as cell growth at 10^-5 M incubated for 48 hrs by sulforhodamine B assay relative to control; conditions: SNB-75, 48 h, read-out: Activity
TK-10 = experiment: Growth inhibition of human TK10 cells assessed as cell growth at 10^-5 M incubated for 48 hrs by sulforhodamine B assay relative to control; conditions: TK-10, 48 h, read-out: Activity
SF-295 = experiment: Growth inhibition of human SF295 cells assessed as cell growth at 10^-5 M incubated for 48 hrs by sulforhodamine B assay relative to control; conditions: SF-295, 48 h, read-out: Activity
CAKI-1 = experiment: Growth inhibition of human Caki1 cells assessed as cell growth at 10^-5 M incubated for 48 hrs by sulforhodamine B assay relative to control; conditions: CAKI-1, 48 h, read-out: Activity
KM12 = experiment: Growth inhibition of human KM12 cells assessed as cell growth at 10^-5 M incubated for 48 hrs by sulforhodamine B assay relative to control; conditions: KM12, 48 h, read-out: Activity
MDA-MB-468 = experiment: Growth inhibition of human MDA-MB-468 cells at 10^-5 M incubated for 48 hrs by sulforhodamine B assay relative to control; conditions: MDA-MB-468, 48 h, read-out: GI
HCT-15 = experiment: Growth inhibition of human HCT15 cells assessed as cell growth at 10^-5 M incubated for 48 hrs by sulforhodamine B assay relative to control; conditions: HCT-15, 48 h, read-out: Activity

| SMILES | growth at 10 µM (COLO 205) [%] | growth at 10 µM (SNB-19) [%] | growth at 10 µM (M14) [%] | growth at 10 µM (BT-549) [%] | inhibition of growth at 10 µM (MCF7) [%] | growth at 10 µM (SN12C) [%] | growth at 10 µM (NCI-H23) [%] | growth at 10 µM (NCI-H460) [%] | growth at 10 µM (A549) [%] | growth at 10 µM (SK-OV-3) [%] | growth at 10 µM (SK-MEL-28) [%] | growth at 10 µM (HCT-116) [%] | growth at 10 µM (MDA-MB-231) [%] | growth at 10 µM (HT-29) [%] | growth at 10 µM (HCC 2998) [%] | growth at 10 µM (HOP-92) [%] | growth at 10 µM (NCI/ADR-RES) [%] | growth at 10 µM (OVCAR-5) [%] | growth at 10 µM (UO-31) [%] | growth at 10 µM (UACC-257) [%] | also measured |
| --- | --- | --- | --- | --- | --- | --- | --- | --- | --- | --- | --- | --- | --- | --- | --- | --- | --- | --- | --- | --- | --- |
| O=C1NC(=O)C(=Cc2cccn2CCCn2c3ccccc3c(=O)c3ccccc32)C(=O)N1 | 108 | 94.2 | 102 | 98.9 | 12 | 101 | 104 | 105 | 94.6 | 98.7 | 110 | 86 | 99.4 | 99.7 | 104 | 87.8 | 101 | 99.9 | 75.9 | 102 | growth at 10 µM (SW-620): 107%; growth at 10 µM (OVCAR-4): 104%; growth at 10 µM (K562): 88.4%; growth at 10 µM (ACHN): 102%; growth at 10 µM (LOX IMVI): 96.9%; growth at 10 µM (SNB-75): 95.7%; growth at 10 µM (TK-10): 96.6%; growth at 10 µM (SF-295): 98.7%; growth at 10 µM (CAKI-1): 96.7%; growth at 10 µM (KM12): 99.6%; inhibition of growth at 10 µM (MDA-MB-468): 7%; growth at 10 µM (HCT-15): 96.5% |
| O=C1NC(=O)C(=Cc2cccn2CCCCCn2c3ccccc3c(=O)c3ccccc32)C(=O)N1 | 114 | 101 | 102 | 104 | 15 | 106 | 96.3 | 108 | 100 | 108 | 111 | 82.2 | 116 | 103 | 105 | 90.4 | 99.5 | 101 | 79.4 | 104 | growth at 10 µM (SW-620): 105%; growth at 10 µM (OVCAR-4): 99.8%; growth at 10 µM (K562): 89.1%; growth at 10 µM (ACHN): 105%; growth at 10 µM (LOX IMVI): 95.3%; growth at 10 µM (SNB-75): 101%; growth at 10 µM (TK-10): 101%; growth at 10 µM (SF-295): 99.4%; growth at 10 µM (CAKI-1): 103%; growth at 10 µM (KM12): 103%; inhibition of growth at 10 µM (MDA-MB-468): 0%; growth at 10 µM (HCT-15): 92.8% |
| O=C1NC(=O)C(=Cc2cccn2CCCCCCn2c3ccccc3c(=O)c3ccccc32)C(=O)N1 | 105 | 94.2 | 94.4 | 93.9 | 24 | 100 | 84.2 | 101 | 95.6 | 99.8 | 111 | 71.2 | 94.6 | 105 | 101 | 85 | 92.9 | 98.3 | 70.3 | 103 | growth at 10 µM (SW-620): 96.9%; growth at 10 µM (OVCAR-4): 95.4%; growth at 10 µM (K562): 74.7%; growth at 10 µM (ACHN): 103%; growth at 10 µM (LOX IMVI): 89.7%; growth at 10 µM (SNB-75): 107%; growth at 10 µM (TK-10): 126%; growth at 10 µM (SF-295): 97.6%; growth at 10 µM (CAKI-1): 92.8%; growth at 10 µM (KM12): 97.1%; inhibition of growth at 10 µM (MDA-MB-468): 5%; growth at 10 µM (HCT-15): 90.3% |
| O=C1NC(=O)C(=Cc2cccn2CCCCn2c3ccccc3c(=O)c3ccccc32)C(=O)N1 | 100 | 75.4 | 82.5 | 88.1 | 43 | 86.6 | 81.7 | 90.2 | 94.6 | 100 | 95.8 | 76.7 | 82.5 | 90.2 | 100 | 86.1 | 88.4 | 91.8 | 63.4 | 91.4 | growth at 10 µM (SW-620): 87.9%; growth at 10 µM (OVCAR-4): 87.2%; growth at 10 µM (K562): 58.9%; growth at 10 µM (ACHN): 92.8%; growth at 10 µM (LOX IMVI): 82.6%; growth at 10 µM (SNB-75): 92.6%; growth at 10 µM (TK-10): 92.4%; growth at 10 µM (SF-295): 78.5%; growth at 10 µM (CAKI-1): 82.9%; growth at 10 µM (KM12): 74.3%; inhibition of growth at 10 µM (MDA-MB-468): 40%; growth at 10 µM (HCT-15): 81.4% |
